# Reference: patent publication US12168673B2 (Mitopower, Inc., priority 2022, dated 2024)
# Assays:
# [1] = Stability in solutions (pH range, simulated gastric fluid, simulated intestinal fluid); format: physicochemical
# Description: 1 mg/ml solutions of compound 100 were prepared in each buffer, diluted to 0.1 mg/ml in methanol at each time point and analyzed as follows: Gemini C-18, 250×4.6 mm, 5 im, Mobile Phase: Methanol Isocratic Flow Rate: 0.4 mL/min.
# Jurkat Cells = test: Cellular NAD+ levels in Jurkat cells (LCMS/MS); format: cell-based; conditions: 30 μM, four hours of incubation
# Description: Compounds 100, 101 and 102 were weighted out to prepare 60 μM stock solutions in RPMI media. 200 ng/mL solution of Rac-tenofovir d6 (Vivan Life-Sciences) was prepared in methanol (MeOH) and placed at −20° C. until use.
# Jurkat Cells, sourced from NCCS Pune, were cultured in RPMI media containing FBS & Antibiotics. Cells from different flasks (90% confluent) were pooled into a 15 mL conical tube and centrifuged for 5 mins at 1200 rpm for 5 mins. The supernatant solution was discarded, and the pellet was washed with 5 mL sterile PBS (without Ca^2+ & Mg^2+). The tube was then centrifuged at 1200 rpm for 5 mins and the supernatant was discarded. The cell pellet was resuspended in 7 mL of RPMI media, and a cell count was done using 10 uL of the cell solution. 1.5 million cells from the cell solution were seeded into 1.5 mL microcentrifuge tubes. […] The tubes were placed in racks and gently swirled to mix the compounds into the media containing the cells. These tubes were then incubated for 4 hours in a 37° C. incubator at 5% CO2. After 4 hours of incubation the cells were spun down at 1000 rpm for 10 mins, the supernatant was discarded carefully, and cells were snap frozen in liquid nitrogen. When the samples were run, the extraction of the cells was on ice, cells were lysed using 20 uL deionized water and then ice cold 80% methanol containing the internal standard—Rac-Tenofovir D was added. The tubes were then vortexed at 2500 rpm for 8 minutes and then centrifuged at […] for 10 minutes. 150 uL of the supernatant was carefully transferred to HPLC vials and was analyzed for NAD^+ on the Abscised 4000 Q Trap LCMS/MS system. A C18, 3.5 μm, 2.1×100 mm, Bridge Column was used in the LC. The mobile phase consisted of 10 mM ammonium acetate with 0.1% acetic acid and 0.1% hexylamine as Solvent-A and 10 mM Ammonium acetate with 0.1% acetic acid and 0.1% hexylamine in 95/5 MeOH/H2O as Solvent-B. The gradient used was 0 mins-0.0% B, 0.5 mins-100% B, 1.5 mins-100% B, 3.0 mins-100% B, 3.1 mins-0.0% B, 7.0-STOP. The column flow rate was 0.5 mL/min. The sample injection volume was […].
# Huh-7 Cells = test: Cellular NAD+ levels in Huh-7 cells (LCMS/MS); format: cell-based; conditions: 125 μm, four hours of incubation
# Description: Huh-7 Cells, sourced from NCCS Pune, were cultured in RPMI media containing FBS & Antibiotics. Cells from different flasks (80-90% confluent) were pooled into a 15 mL conical tube and centrifuged for 5 mins at 1200 rpm for 5 mins. The supernatant solution was discarded, and the pellet was washed with 5 mL sterile PBS (without Ca^2+ and Mg^2+). The tube was then centrifuged at 1200 rpm for 5 mins and the supernatant was discarded. The cell pellet was resuspended in 7 mL of RPMI media, and a cell count was done using 10 uL of the cell solution. 1.5 million cells from the cell solution were seeded into 1.5 mL microcentrifuge tubes. […] The tubes were placed in racks and gently swirled to mix the compounds into the media containing the cells. These tubes were then incubated for 4 hours in a 37° C. incubator at 5% CO2. After 4 hours of incubation the cells were spun down at 1000 rpm for 10 mins, the supernatant was discarded carefully, and cells were snap frozen in liquid nitrogen. When the samples were run, the extraction of the cells was on ice, cells were lysed using 20 uL deionized water and then ice cold 80% methanol containing the internal standard—Rac-Tenofovir D was added. The tubes were then vortexed at 2500 rpm for 8 minutes and then centrifuged at […] for 10 minutes. 150 uL of the supernatant was carefully transferred to HPLC vials and was analyzed for NAD^+ on the Abscised 4000 Q Trap LCMS/MS system. A C18, 3.5 μm, 2.1×100 mm, Bridge Column was used in the LC. The mobile phase consisted of 10 mM ammonium acetate with 0.1% acetic acid & 0.1% hexylamine as Solvent-A and 10 mM Ammonium acetate with 0.1% acetic acid and 0.1% hexylamine in 95/5 MeOH/H2O as Solvent-B. The gradient used was 0 mins-0.0% B, 0.5 mins-100% B, 1.5 mins-100% B, 3.0 mins-100% B, 3.1 mins-0.0% B, 7.0-STOP. The column flow rate was 0.5 mL/min. The sample injection volume was […].
smiles,measurement,setting,value
"O=C(OC1O[C@H](CO)[C@@H](O)[C@H]1O)c1cccnc1 (stereo partly drawn) [Compound 100, (3R, 4S, 5R)-3,4-dihydroxy-5-(hydroxymethyl) tetrahydrofuran-2-yl nicotinate]",% remaining,"[1]; SGF (simulated gastric fluid), 0 h",100.0%
same,% remaining,"[1]; SGF (simulated gastric fluid), 1 week",43.4%
same,% remaining,"[1]; SGF (simulated gastric fluid), 1 h",99.1%
same,% remaining,"[1]; SGF (simulated gastric fluid), 2 h",89.2%
same,% remaining,"[1]; SGF (simulated gastric fluid), 4 h",79.6%
same,% remaining,"[1]; SGF (simulated gastric fluid), 8 h",65.4%
same,% remaining,"[1]; SGF (simulated gastric fluid), 24 h",71.7%
same,% remaining,"[1]; SGF (simulated gastric fluid), 48 h",55.0%
same,% remaining,"[1]; SIF (simulated intestinal fluid), 0 h",100.0%
same,% remaining,"[1]; SIF (simulated intestinal fluid), 1 week",30.7%
same,% remaining,"[1]; SIF (simulated intestinal fluid), 1 h",76.4%
same,% remaining,"[1]; SIF (simulated intestinal fluid), 2 h",64.5%
same,% remaining,"[1]; SIF (simulated intestinal fluid), 4 h",41.4%
same,% remaining,"[1]; SIF (simulated intestinal fluid), 8 h",40.5%
same,% remaining,"[1]; SIF (simulated intestinal fluid), 24 h",36.7%
same,% remaining,"[1]; SIF (simulated intestinal fluid), 48 h",38.7%
same,% remaining,"[1]; pH 1, 0 h",100.0%
same,% remaining,"[1]; pH 1, 1 week",46.5%
same,% remaining,"[1]; pH 1, 1 h",100.9%
same,% remaining,"[1]; pH 1, 2 h",104.8%
same,% remaining,"[1]; pH 1, 4 h",80.7%
same,% remaining,"[1]; pH 1, 8 h",49.0%
same,% remaining,"[1]; pH 1, 24 h",53.0%
same,% remaining,"[1]; pH 1, 48 h",45.6%
same,% remaining,"[1]; pH 2, 0 h",100.0%
same,% remaining,"[1]; pH 2, 1 week",31.9%
same,% remaining,"[1]; pH 2, 1 h",91.9%
same,% remaining,"[1]; pH 2, 2 h",93.8%
same,% remaining,"[1]; pH 2, 4 h",93.0%
same,% remaining,"[1]; pH 2, 8 h",54.8%
same,% remaining,"[1]; pH 2, 24 h",28.6%
same,% remaining,"[1]; pH 2, 48 h",36.0%
same,% remaining,"[1]; pH 4, 0 h",100.0%
same,% remaining,"[1]; pH 4, 1 week",45.4%
same,% remaining,"[1]; pH 4, 1 h",95.7%
same,% remaining,"[1]; pH 4, 2 h",99.2%
same,% remaining,"[1]; pH 4, 4 h",97.9%
same,% remaining,"[1]; pH 4, 8 h",49.0%
same,% remaining,"[1]; pH 4, 24 h",42.3%
same,% remaining,"[1]; pH 4, 48 h",42.9%
same,% remaining,"[1]; pH 6, 0 h",100.0%
same,% remaining,"[1]; pH 6, 1 week",48.1%
same,% remaining,"[1]; pH 6, 1 h",92.0%
same,% remaining,"[1]; pH 6, 2 h",86.4%
same,% remaining,"[1]; pH 6, 4 h",70.9%
same,% remaining,"[1]; pH 6, 8 h",50.4%
same,% remaining,"[1]; pH 6, 24 h",55.1%
same,% remaining,"[1]; pH 6, 48 h",47.7%
same,% remaining,"[1]; pH 7.4, 0 h",100.0%
same,% remaining,"[1]; pH 7.4, 1 week",34.2%
same,% remaining,"[1]; pH 7.4, 1 h",57.1%
same,% remaining,"[1]; pH 7.4, 2 h",41.1%
same,% remaining,"[1]; pH 7.4, 4 h",37.5%
same,% remaining,"[1]; pH 7.4, 8 h",46.3%
same,% remaining,"[1]; pH 7.4, 24 h",46.0%
same,% remaining,"[1]; pH 7.4, 48 h",36.6%
same,% remaining,"[1]; pH 9, 0 h",100.0%
same,% remaining,"[1]; pH 9, 1 week",9.2%
same,% remaining,"[1]; pH 9, 1 h",17.7%
same,% remaining,"[1]; pH 9, 2 h",7.8%
same,% remaining,"[1]; pH 9, 4 h",7.6%
same,% remaining,"[1]; pH 9, 8 h",7.5%
same,% remaining,"[1]; pH 9, 24 h",6.6%
same,% remaining,"[1]; pH 9, 48 h",8.1%
same,NAD+ level increase compared to untreated cells,Jurkat Cells,showed statistical significance in terms of NAD^+ level increases
same,NAD+ level increase compared to untreated cells,Huh-7 Cells,showed an increase
